Assay results taken from patent publication US20150141460A1, “Anti-inflammatory Compositions” (Cambridge Enterprise Limited, priority 2007, published 2015).
Where two headings read alike, the source gives them in different places.

Experiments:
[1] = target: target receptor (site of specific interaction of BN83250) (Homo sapiens, UniProt P30874); experiment: Competition for binding of [3H]-BN83250 to the target receptor on human myelomonocytic cell line; conditions: competition with 10 nM [3H]-BN83250; non-linear modelling
Chain of target receptor (site of specific interaction of BN83250) (P30874 whole entry): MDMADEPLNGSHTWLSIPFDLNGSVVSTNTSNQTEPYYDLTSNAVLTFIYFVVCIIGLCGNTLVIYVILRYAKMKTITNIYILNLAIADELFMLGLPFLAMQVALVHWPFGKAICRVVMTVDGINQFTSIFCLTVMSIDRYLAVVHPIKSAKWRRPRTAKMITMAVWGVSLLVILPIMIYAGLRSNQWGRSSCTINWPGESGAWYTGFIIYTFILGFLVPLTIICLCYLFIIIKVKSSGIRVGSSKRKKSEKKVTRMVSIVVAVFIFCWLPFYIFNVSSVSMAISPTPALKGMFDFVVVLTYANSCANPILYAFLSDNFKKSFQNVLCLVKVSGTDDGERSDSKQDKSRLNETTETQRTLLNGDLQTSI
Procedure: In this experiment, each reaction received 10 nM labelled BN83250 (a lactam BSCI which binds to the same receptor as compound (I′)), together with various competitors (100 μM-1 pM). The total specific binding was the amount displaced by a large excess (100 μM). Each bar represents the mean of three replicate determinations, with whiskers representing SEM. The Y-axis represents the radioactive counts bound in each experiments in units of counts per minute (cpm). The upper dashed line represents the total binding under the conditions of the experiment, while the lower dashed line represents the non-specific binding; the specific binding is represented by the distance between the dashed lines.
The general pharmacology of the five compounds was assessed, both against the specific target receptor, and against a wide variety of other receptors, many related in structure to the target receptor. Specific binding to the target receptor was assessed by competition for the binding of [^3H]-BN83250 (BN83250 is (S)-3-(2′,2′-dimethyldodecanoylamino)-caprolactam; Fox et al. J Med Chem. […]; 48(3):867-74; an agent known to bind to the same target receptor as the lactam BSCIs disclosed here). Binding to non-target receptors was assessed by competition for the binding of various specific radioligands for other receptors which are well known in the art. […]

[2] = test system: MCP-1 induced migration of THP-1 cells; experiment: ChemoTx transwell migration assay, MCP-1 induced migration of THP-1 cells; format: cell-based; conditions: Homo sapiens
Procedure: FIGS. 6A-6F show representative dose response curves for the inhibition of chemokine-induced leukocyte migration in vitro, for each of the five compounds (I′) to (V) in the ChemoTx™ transwell migration assay. In each experiment, THP-1 cells were induced to migrate using a maximally effective dose of the chemokine MCP-1 in the presence or absence of various doses (from 10 pM to 1 μM) of each compound. An appropriate vehicle control was used in each experiment. The percentage inhibition of MCP-1 induced migration (calculated as the number of cells migrated in the presence of MCP-1 minus the number of cells migrated with MCP-1 omitted from the lower chamber) at each concentration of each test compound is shown as the mean of triplicate determinations, with whiskers representing SEM. The ED50 was estimated by linear interpolation of the presented graphs. The Y-axis of each graph represents the percentage inhibition of MCP-1 induced migration; the X-axis represents the concentration of test compound present in units of nM (0.01-1000).
In principle, this assay consists of two chambers separated by a porous membrane. The chemoattractant is placed in the lower compartment and the cells are placed in the upper compartment. After incubation for a period at 37° C. the cells move towards the chemoattractant, and the number of cells in the lower compartment is proportional to the chemoattractant activity (relative to a series of controls).
The THP-1 cell line (European Cell Culture Collection) were used as the leukocyte cell population.
First, the cell suspension to be placed in the upper compartment is prepared. The THP-1 cells are pelleted by centrifugation (770×g; 4 mins) and washed with Geys Balanced Salt Solution with 1 mg/ml BSA (GBSS+BSA). This wash is then repeated, and the cells repelleted before being resuspended in a small volume of GBSS+BSA for counting, for example using a standard haemocytometer.
The volume of GBSS+BSA is then adjusted depending on the number of cells present so that the cells are at final density of 4.45×10^6 cells per ml of GBSS+BSA. This ensures that there are […] THP-1 cells in each 25 μl of the solution that will be placed in the upper chamber of the plate.
To test a single compound for its ability to inhibit chemokine induced migration, it is necessary to prepare two lots of cells. The suspension of THP-1 cells at 4.45×10^6 cells/ml is divided into two pots. To one pot the inhibitor under test is added at an appropriate final concentration, in an appropriate vehicle (for example at 1 μM in not more than 1% DMSO). To the second pot an equal volume of GBSS+BSA plus vehicle as appropriate (e.g. not more than 1% DMSO) is added to act as a control.
Next, the chemoattractant solution to be placed in the lower compartment is prepared. […]

[3] = Distribution of unchanged compound into tissues and urine 24 hrs after a single dose in rat; format: in vivo; conditions: for Urine (ng/ml) unchanged parent compound: 24 hrs after a single oral dose 3 mg/kg in 1% CMC
Procedure: Urine was collected from rats exposed to a single oral dose (3 mg/kg in 1% CMC) of each compound over a 24 hour period in metabolic cages. The pooled urine sample was then subjected to full scan mass spectral analysis, using the same LC-MS conditions as described in example 1 above. Further MS-MS analysis of the product ions was then performed, and likely fragmentations/re-arrangements assigned from the publicly available Metabolite ID database.
To provide a quantitative estimate of the degree of metabolism suffered by each of the compounds tested, the amount of unchanged parent compound in urine was measured using the same validated LC-MS assay described in example 1, using (S)-3-(2′,2′-dimethylpropanoylamino)-caprolactam as an internal standard. In addition, the level of compounds in various target tissues was also determined.

[4] = THP-1 cell line, maximal dose of chemoattractant, Table 6, read-out: ED50 MCP-1 induced migration
[5] = THP-1 cells, Table 5, read-out: Functional ED50 versus MCP-1

SMILES | Ka at target receptor (pM) [1] [pM] | EC50 [2, 4] [nM] | EC50 [2, 5] [nM] | Urine (ng/ml) unchanged parent compound [3] [ng/mL] | unchanged parent compound recovered in urine, % of the injected dose ([3]; single oral dose 3 mg/kg in 1% CMC, 24 hrs)
CC(C)(C)C(=O)N[C@H]1CCCNC1=O [Compound (I′), (S)-3-(2′,2′-dimethylpropanoylamino)-tetrahydropyridin-2-one] | 50 | 0.05 | 0.05 | 24567 | more than 60%
O=C1NCCCC[C@@H]1NC(=O)C12CC3CC(CC(O)(C3)C1)C2 [Compound (V), 3-(3′-hydroxyadamantyl-1-carbonylamino)-caprolactam] | – | 0.12 | 0.12 | 16300 | –
